Test results reported in patent US6218417A, “Ace-inhibitor nitric salts” (priority 1997, dated 2001).
Structures can show the parent of a compound that is named as a salt.

Assays:
[1] = system: angiotensin-I-induced hypertension; assay: Antihypertensive activity: inhibition of angiotensin I-induced hypertension (Laubie et al.); format: in vivo, rats; settings: angiotensin I 100 μg/Kg i.v.
Description: The antihypertensive activity of the nitrate salts of the compounds of the invention was determined in accordance with the method of Laubie et al., J. Cardiovasc. Pharmacol. 6, 1076, 1984. No 6 rats weighing about 200 to 250 g were used per experimental group. Four groups were formed, which were intraperitoneally treated respectively as shown below:
The doses are referred to the amount of Enalapril (cation) in the salt. The antihypertensive response was evaluated as per-cent inhibition of the hypertension induced by the administration of a dose of 100 μg/Kg i.v. of angiotensin I as described in the above article.

[2] = system: bronchial spasm induced by substance P; assay: Bronchial spasm induced by substance P (Subissi et al.; Konzett); format: in vivo, female Guinea pigs; settings: for Tidal air change % in bronchial spasm induced by substance P: 30 minutes before substance P (200 μg/Kg)
Description: Activity was evaluated measuring the strengthening of bronchial spasm induced by substance P, determined in accordance with the method of Subissi et al., Br. J. Pharmacol. 100, 502-6, 1990. The model described by Subissi is predictive of bronchial side effects due to the administration of ACE inhibitors.
Four groups (6 animals/group) of female Guinea pigs weighing about 300 to 400 g were anaesthetised with ethyl urethane (200 mg/Kg) under artificial pressure at constant positive pressure. The compounds were administered intra-peritoneally 30 minutes before substance P. The salt doses administered were the same as in Example 4. The changes in tidal air were then measured in accordance wuth the method of Konzett, Arch. Exp. Pathol. Pharmacol. 195, 71, 1940, before and after the administration of substance P (200 μg/Kg), with or without the test salts, i.e. Enalapril maleate and nitrate.

[3] = system: platelet aggregation (collagen-induced); assay: Platelet-antiaggregating activity, in-vivo collagen model (Pinon et al.); design: species or system rats; settings: 10 mg/Kg/os per day (as Enalapril cation) for five days; collagen 2 mg/Kg i.v.; referred to control group
Description: The in-vivo model described by Pinon et al., J. Pharm. Methods 12, 79-84, 1984, was used.
Two groups of 6 rats each, weighing about 200 to 250 g, were treated with an oral. dose of 10 mg/Kg/die of Enalapril maleate or nitrate respectively (the dose is referred to the amount of Enalapril cation in the salt) for five days, while a third group acted as a control group. About 18 hours before the last treatment, the animals were fasted. One hour after this treatment the animals were anaesthetised with 10% ethyl urethane (1 g/Kg intraperitoneally) and the left jugular vein and the right carotid artery were cannulated. Collagen (type 6, Sigma) was then administered intravenously at a dose of 2 mg/Kg. Three minutes later two blood samples, A and B, were collected from the carotid artery of each animal.
1.6 ml of EDTA/formalin buffer (24 mM tetrasodium EDTA, 1.3 mM KH2 PO4, 13.4 mM Na2 HPO4) was added to the first sample (sample A) containing 0.4 ml of blood.
The second blood sample (sample B) had the same volume as the previous sample (0.4 ml of blood) but, instead of the buffer, 1.6 ml of a saline solution (physiological NaCl solution) was added. […]
A microscope platelet count was then performed. […] The results shown in Table III are expressed as a % of platelet aggregation and are referred to the % value obtained in the control group.

[4] = 100 μg/Kg/i.p. (as Enalapril cation)
[5] = 300 μg/Kg/i.p. (as Enalapril cation)

| Compound | Inhibition % for angiotensin-I-induced hypertension [1, 4] [%] | Inhibition % for angiotensin-I-induced hypertension [1, 5] [%] | Tidal air change % in bronchial spasm induced by substance P ([2]; 100 μg/Kg/i.p.) | Tidal air change % in bronchial spasm induced by substance P ([2]; 300 μg/Kg/i.p.) | Antiaggregating activity % [3] [%] | Respiratory profile ([2]; compared to Enalapril maleate, 100 and 300 μg/Kg i.p.) |
| --- | --- | --- | --- | --- | --- | --- |
| CCOC(=O)[C@H](CCc1ccccc1)N[C@@H](C)C(=O)N1CCC[C@H]1C(=O)O [Enalapril maleate, reference compound] | 18 | 55 | +16% | +28% | 5 | – |
| CCOC(=O)[C@H](CCc1ccccc1)N[C@@H](C)C(=O)N1CCC[C@H]1C(=O)O [Enalapril nitrate, (S)-1-[N-[1-(ethoxycarbonyl)-3-phenylpropyl]-L-alanyl]-L-proline] | 35 | 67 | -5% | -7% | 58 | better respiratory profile than Enalapril maleate at both tested doses |
